Data from paper PMC8037182, “Solvothermal Synthesis of Multiple Dihydropyrimidinones at a Time as Inhibitors of Eg5” (Molecules, 2021).

Legend:
Hela cell line = experiment: Cytotoxicity MTS assay, Hela cell line; type: cell-based; settings: for OD490 value, Mean / OD490 value, Well 1 / OD490 value, Well 2 / OD490 value, Well 3: Hela cell line, MTS;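 as to OD490 value, Mean: blank control wells received 0.025% DMSO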;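 as to OD490 value, Well 1: blank control wells received 0.025% DMSO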;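 as to OD490 value, Well 2: blank control wells received 0.025% DMSO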;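 as to OD490 value, Well 3: blank control wells received 0.025% DMSO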
Method in brief: (§1)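 MTS antiproliferation; 1000 cells/well, 24 h pre-incubation; compound 0.5–100 µM final, 24 h exposure; vehicle 0.025% DMSO; monastrol positive control; MTS 2 h, 37 °C, 5% CO2; A490; IC50 by non-linear regression of % viability vs concentration; three independent duplicate runs.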

T24 cell line = experiment: Cytotoxicity MTS assay, T24 cell line; type: cell-based; settings: for OD490 Mean / OD490 Well 1 / OD490 Well 2 / OD490 Well 3: T24 cell line;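 as to OD490 Mean: blank control wells received 0.025% DMSO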;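 as to OD490 Well 1: blank control wells received 0.025% DMSO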;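 as to OD490 Well 2: blank control wells received 0.025% DMSO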;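 as to OD490 Well 3: blank control wells received 0.025% DMSO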
Method in brief: as §1

CCOC(=O)c1[nH]c(C2NC(=O)NC(C)=C2C(=O)Nc2ccccc2C)c(C(=O)OC)c1C (centres unmarked) [D4]
OD490 value, Mean (Hela cell line; 0.5μM, first assay): 2.5619
OD490 value, Well 1 (Hela cell line; 0.5μM, first assay): 2.3169
OD490 value, Well 2 (Hela cell line; 0.5μM, first assay): 2.6787
OD490 value, Well 3 (Hela cell line; 0.5μM, first assay): 2.6902
OD490 value, Mean (Hela cell line; 0.5μM, second assay): 2.6585
OD490 value, Well 1 (Hela cell line; 0.5μM, second assay): 2.7756
OD490 value, Well 2 (Hela cell line; 0.5μM, second assay): 2.2036
OD490 value, Well 3 (Hela cell line; 0.5μM, second assay): 2.9963
OD490 value, Mean (Hela cell line; 0.5μM, third assay): 2.6298
OD490 value, Well 1 (Hela cell line; 0.5μM, third assay): 2.6541
OD490 value, Well 2 (Hela cell line; 0.5μM, third assay): 2.5689
OD490 value, Well 3 (Hela cell line; 0.5μM, third assay): 2.6665
OD490 value, Mean (Hela cell line; 1μM, first assay): 2.4999
OD490 value, Well 1 (Hela cell line; 1μM, first assay): 2.4427
OD490 value, Well 2 (Hela cell line; 1μM, first assay): 2.5466
OD490 value, Well 3 (Hela cell line; 1μM, first assay): 2.5103
OD490 value, Mean (Hela cell line; 1μM, second assay): 2.6707
OD490 value, Well 1 (Hela cell line; 1μM, second assay): 2.6654
OD490 value, Well 2 (Hela cell line; 1μM, second assay): 2.6879
OD490 value, Well 3 (Hela cell line; 1μM, second assay): 2.6588
OD490 value, Mean (Hela cell line; 1μM, third assay): 2.5654
OD490 value, Well 1 (Hela cell line; 1μM, third assay): 2.6540
OD490 value, Well 2 (Hela cell line; 1μM, third assay): 2.5421
OD490 value, Well 3 (Hela cell line; 1μM, third assay): 2.5000
OD490 value, Mean (Hela cell line; 10μM, first assay): 2.7063
OD490 value, Well 1 (Hela cell line; 10μM, first assay): 2.6331
OD490 value, Well 2 (Hela cell line; 10μM, first assay): 2.7562
OD490 value, Well 3 (Hela cell line; 10μM, first assay): 2.7295
OD490 value, Mean (Hela cell line; 10μM, second assay): 2.7726
OD490 value, Well 1 (Hela cell line; 10μM, second assay): 2.6985
OD490 value, Well 2 (Hela cell line; 10μM, second assay): 2.7856
OD490 value, Well 3 (Hela cell line; 10μM, second assay): 2.8336
OD490 value, Mean (Hela cell line; 10μM, third assay): 2.5863
OD490 value, Well 1 (Hela cell line; 10μM, third assay): 2.3545
OD490 value, Well 2 (Hela cell line; 10μM, third assay): 2.7454
OD490 value, Well 3 (Hela cell line; 10μM, third assay): 2.6589
OD490 value, Mean (Hela cell line; 25μM, first assay): 2.5844
OD490 value, Well 1 (Hela cell line; 25μM, first assay): 2.5014
OD490 value, Well 2 (Hela cell line; 25μM, first assay): 2.5977
OD490 value, Well 3 (Hela cell line; 25μM, first assay): 2.6541
OD490 value, Mean (Hela cell line; 25μM, second assay): 2.6351
OD490 value, Well 1 (Hela cell line; 25μM, second assay): 2.6354
OD490 value, Well 2 (Hela cell line; 25μM, second assay): 2.6289
OD490 value, Well 3 (Hela cell line; 25μM, second assay): 2.6410
OD490 value, Mean (Hela cell line; 25μM, third assay): 2.6063
OD490 value, Well 1 (Hela cell line; 25μM, third assay): 2.5658
OD490 value, Well 2 (Hela cell line; 25μM, third assay): 2.6542
OD490 value, Well 3 (Hela cell line; 25μM, third assay): 2.5988
OD490 value, Mean (Hela cell line; 50μM, first assay): 2.4897
OD490 value, Well 1 (Hela cell line; 50μM, first assay): 2.2013
OD490 value, Well 2 (Hela cell line; 50μM, first assay): 2.5633
OD490 value, Well 3 (Hela cell line; 50μM, first assay): 2.7046
OD490 value, Mean (Hela cell line; 50μM, second assay): 2.4794
OD490 value, Well 1 (Hela cell line; 50μM, second assay): 2.5532
OD490 value, Well 2 (Hela cell line; 50μM, second assay): 2.4198
OD490 value, Well 3 (Hela cell line; 50μM, second assay): 2.4652
OD490 value, Mean (Hela cell line; 50μM, third assay): 2.5366
OD490 value, Well 1 (Hela cell line; 50μM, third assay): 2.4650
OD490 value, Well 2 (Hela cell line; 50μM, third assay): 2.5462
OD490 value, Well 3 (Hela cell line; 50μM, third assay): 2.5985
OD490 value, Mean (Hela cell line; 100μM, first assay): 1.9103
OD490 value, Well 1 (Hela cell line; 100μM, first assay): 1.9024
OD490 value, Well 2 (Hela cell line; 100μM, first assay): 1.9524
OD490 value, Well 3 (Hela cell line; 100μM, first assay): 1.8761
OD490 value, Mean (Hela cell line; 100μM, second assay): 2.0041
OD490 value, Well 1 (Hela cell line; 100μM, second assay): 2.0124
OD490 value, Well 2 (Hela cell line; 100μM, second assay): 2.0036
OD490 value, Well 3 (Hela cell line; 100μM, second assay): 1.9963
OD490 value, Mean (Hela cell line; 100μM, third assay): 1.9351
OD490 value, Well 1 (Hela cell line; 100μM, third assay): 1.8989
OD490 value, Well 2 (Hela cell line; 100μM, third assay): 1.9478
OD490 value, Well 3 (Hela cell line; 100μM, third assay): 1.9587
IC50 (Hela cell line; MTS assay, 24 h exposure): > 150 µM
IC50 (T24 cell line; MTS assay, 24 h exposure): 129 µM
OD490 Mean (T24 cell line; 0.5μM, first assay): 1.9335
OD490 Well 1 (T24 cell line; 0.5μM, first assay): 1.4364
OD490 Well 2 (T24 cell line; 0.5μM, first assay): 2.2473
OD490 Well 3 (T24 cell line; 0.5μM, first assay): 2.1169
OD490 Mean (T24 cell line; 0.5μM, second assay): 1.7407
OD490 Well 1 (T24 cell line; 0.5μM, second assay): 1.6852
OD490 Well 2 (T24 cell line; 0.5μM, second assay): 1.7785
OD490 Well 3 (T24 cell line; 0.5μM, second assay): 1.7585
OD490 Mean (T24 cell line; 0.5μM, third assay): 1.7395
OD490 Well 1 (T24 cell line; 0.5μM, third assay): 1.7423
OD490 Well 2 (T24 cell line; 0.5μM, third assay): 1.7741
OD490 Well 3 (T24 cell line; 0.5μM, third assay): 1.7022
OD490 Mean (T24 cell line; 1μM, first assay): 2.0004
OD490 Well 1 (T24 cell line; 1μM, first assay): 1.9146
OD490 Well 2 (T24 cell line; 1μM, first assay): 1.8237
OD490 Well 3 (T24 cell line; 1μM, first assay): 2.2630
OD490 Mean (T24 cell line; 1μM, second assay): 1.6895
OD490 Well 1 (T24 cell line; 1μM, second assay): 1.7235
OD490 Well 2 (T24 cell line; 1μM, second assay): 1.6895
OD490 Well 3 (T24 cell line; 1μM, second assay): 1.6555
OD490 Mean (T24 cell line; 1μM, third assay): 1.7159
OD490 Well 1 (T24 cell line; 1μM, third assay): 1.7423
OD490 Well 2 (T24 cell line; 1μM, third assay): 1.7020
OD490 Well 3 (T24 cell line; 1μM, third assay): 1.7033
OD490 Mean (T24 cell line; 10μM, first assay): 1.7700
OD490 Well 1 (T24 cell line; 10μM, first assay): 1.7289
OD490 Well 2 (T24 cell line; 10μM, first assay): 1.7432
OD490 Well 3 (T24 cell line; 10μM, first assay): 1.8379
OD490 Mean (T24 cell line; 10μM, second assay): 1.7224
OD490 Well 1 (T24 cell line; 10μM, second assay): 1.6895
OD490 Well 2 (T24 cell line; 10μM, second assay): 1.7125
OD490 Well 3 (T24 cell line; 10μM, second assay): 1.7652
OD490 Mean (T24 cell line; 10μM, third assay): 1.7024
OD490 Well 1 (T24 cell line; 10μM, third assay): 1.6647
OD490 Well 2 (T24 cell line; 10μM, third assay): 1.7424
OD490 Well 3 (T24 cell line; 10μM, third assay): 1.7000
OD490 Mean (T24 cell line; 25μM, first assay): 1.7511
OD490 Well 1 (T24 cell line; 25μM, first assay): 1.6328
OD490 Well 2 (T24 cell line; 25μM, first assay): 1.8078
OD490 Well 3 (T24 cell line; 25μM, first assay): 1.8128
OD490 Mean (T24 cell line; 25μM, second assay): 1.5821
OD490 Well 1 (T24 cell line; 25μM, second assay): 1.5660
OD490 Well 2 (T24 cell line; 25μM, second assay): 1.5848
OD490 Well 3 (T24 cell line; 25μM, second assay): 1.5954
OD490 Mean (T24 cell line; 25μM, third assay): 1.5535
OD490 Well 1 (T24 cell line; 25μM, third assay): 1.5385
OD490 Well 2 (T24 cell line; 25μM, third assay): 1.5232
OD490 Well 3 (T24 cell line; 25μM, third assay): 1.5987
OD490 Mean (T24 cell line; 50μM, first assay): 1.6313
OD490 Well 1 (T24 cell line; 50μM, first assay): 1.6866
OD490 Well 2 (T24 cell line; 50μM, first assay): 1.7561
OD490 Well 3 (T24 cell line; 50μM, first assay): 1.4513
OD490 Mean (T24 cell line; 50μM, second assay): 1.4096
OD490 Well 1 (T24 cell line; 50μM, second assay): 1.4425
OD490 Well 2 (T24 cell line; 50μM, second assay): 1.4212
OD490 Well 3 (T24 cell line; 50μM, second assay): 1.3652
OD490 Mean (T24 cell line; 50μM, third assay): 1.4169
OD490 Well 1 (T24 cell line; 50μM, third assay): 1.4284
OD490 Well 2 (T24 cell line; 50μM, third assay): 1.4022
OD490 Well 3 (T24 cell line; 50μM, third assay): 1.4202
OD490 Mean (T24 cell line; 100μM, first assay): 1.4469
OD490 Well 1 (T24 cell line; 100μM, first assay): 1.4538
OD490 Well 2 (T24 cell line; 100μM, first assay): 1.4557
OD490 Well 3 (T24 cell line; 100μM, first assay): 1.4313
OD490 Mean (T24 cell line; 100μM, second assay): 1.2781
OD490 Well 1 (T24 cell line; 100μM, second assay): 1.3325
OD490 Well 2 (T24 cell line; 100μM, second assay): 1.2654
OD490 Well 3 (T24 cell line; 100μM, second assay): 1.2365
OD490 Mean (T24 cell line; 100μM, third assay): 1.2819
OD490 Well 1 (T24 cell line; 100μM, third assay): 1.2539
OD490 Well 2 (T24 cell line; 100μM, third assay): 1.3332
OD490 Well 3 (T24 cell line; 100μM, third assay): 1.2585
